# Source: US20160375155A1, “Collagen Imaging Compositions” (Collagen Medical, LLC, priority 2015, published 2016)
# Key:
# [1] = test system: hypoperfused vs normally perfused myocardium; type: in vivo, canine
# Experimental: To mimic severe ischemia, a canine model was used in which an inflatable variable vascular occluder was placed around the left anterior descending coronary artery (LAD) to allow occlusion and reperfusion. Imaging was performed on a 3 T clinical scanner 4 days after implantation of the occluder. The conventional saturation recovery pulse sequence for stress perfusion imaging was compared with a segmented inversion method. The purpose of the segmented inversion method was to leverage the steady-state properties of Compound ID No. 1. This segmented inversion recovery pulse sequence provides greater T1 weighting, higher spatial resolution, and greater myocardial tissue contrast. Additionally, since imaging is delayed, the entire heart can be imaged. After baseline MRI scanning, the balloon was inflated. Compound ID No. 1 was administered as an i.v. bolus at a dose of 7.5 μmol/kg one minute after coronary artery occlusion. The occlusion was maintained for an additional 4 minutes, after which blood flow was restored. Imaging was performed prior to occlusion release and at multiple time points following reperfusion (up to 120 minutes after reperfusion, see FIG. 20)
# To assess relative perfusion, labeled microspheres were administered at 3 timepoints in the study. La-labeled microspheres were given before coronary artery occlusion, Au-labeled microspheres were given during coronary artery occlusion, and Lu-labeled microspheres were given after reperfusion. In addition, prior to euthanasia, the variable occluder was re-inflated and fluorescent microspheres were administered in combination with KCl to arrest the heart and visually delineate the area of hypo-perfusion. The animal was sacrificed at ca. 120 minutes post Compound ID No. 1 and the heart removed and sectioned according to American Heart Association guidelines (M D Cerqueira et al, Circulation, 2002, 105:539-42). At autopsy under ultraviolet light, the hypo-perfused myocardium was differentiated from normal myocardium due to the lack of fluorescence in the hypo-perfused tissue. Based on the fluorescence, a sample of the ischemic territory and a sample of the remote myocardium were taken for ex vivo analysis. These tissue samples were weighed, digested in nitric acid, and analyzed for the elements La, Au, Lu (the three microsphere injections) and gadolinium (Compound ID No. 1) using ICP-MS. Concentrations in the ischemic tissue were compared to that of the remote myocardium to assess regional flow and probe uptake.
# Data were quantitatively evaluated at pre-contrast, at 6 minutes post-contrast, and 15 minutes post-contrast using signal-to-noise ratios (SNR) for normally perfused myocardium, SNR for hypo-perfused myocardium, and contrast to noise ratio (CNR) for normal-to-hypoperfused myocardium, Tables 8-10 and FIG. 23. […]
# fibrotic liver tissue = assay: Uptake into fibrotic liver tissue, bile duct ligated (BDL) rats; type: in vivo, Sprague-Dawley rats; details: BDL rats vs sham, ~7.5 μmol/kg, 90 min
# Experimental: Bile duct ligated (BDL) rats are selected to assess the uptake of the complexes in fibrotic liver tissue as compared to sham operated animals. In this model, the common bile duct is surgically tied off and the resultant cholestosis results in fibrosis around the bile ducts. Laparotomy is performed in Sprague-Dawley rats with double ligation of the common bile duct with a section between the two ligatures (2-3% isoflurane anesthesia). […] Fibrosis is evident 15 days after ligation and increases with time up to 30 days after ligation, providing defined endpoints for imaging of moderate and severe fibrosis. Studies are conducted by injecting Compound ID. No. 1 at a dose ˜7.5 μmol/kg. After 90 min, the animals are sacrificed and the 4 liver lobes and abdominal muscle are removed and the gadolinium concentration quantified by ICP-MS and collagen content quantified using hydroxyproline concentration.
smiles,measurement,setting,value
CC(C)C[C@H](NC(=O)[C@@H]1CSSC[C@H](NC(=O)[C@H](Cc2c[nH]cn2)NC(=O)[C@H](Cc2c[nH]c3ccccc23)NC(=O)[C@H](CCCCNC(=O)CC[C@H](C(=O)O)N2CCN(CC(=O)O)CCN(CC(=O)O)CCN(CC(=O)O)CC2)NC(=O)CNC(=O)CC[C@H](C(=O)O)N2CCN(CC(=O)O)CCN(CC(=O)O)CCN(CC(=O)O)CC2)C(=O)N[C@@H]([C@@H](C)O)C(=O)N[C@@H]([C@@H](C)O)C(=O)N[C@@H](CCCCNC(=O)CC[C@H](C(=O)O)N2CCN(CC(=O)O)CCN(CC(=O)O)CCN(CC(=O)O)CC2)C(=O)N[C@@H](Cc2ccccc2)C(=O)N2CCC[C@H]2C(=O)N[C@@H](Cc2c[nH]cn2)C(=O)N[C@@H](Cc2c[nH]cn2)C(=O)N[C@@H](Cc2ccc(O)cc2)C(=O)N1)C(=O)N[C@@H](Cc1ccc(O)cc1)C(=O)N[C@@H](Cc1ccc(-c2ccccc2)cc1)C(N)=O [Compound ID No. 1],ΔCNR relative to EP-3600 study,"[1]; 7.5 μmol/kg vs 12.3 μmol/kg EP-3600 (pig, literature)",3 to 4 fold
same,visualization of myocardial perfusion defect,[1]; MRI after 7.5 μmol/kg,readily visualized
same,change in SNR of hypoperfused myocardium vs pre-contrast,[1]; post injection,not significantly higher compared to the pre-contrast image
same,change in SNR of normally perfused myocardium vs pre-contrast,"[1]; post injection, persists at 15 min, P<0.01",strong and significant increase in SNR
same,uptake into fibrotic liver tissue,fibrotic liver tissue,consistent with uptake of Compound ID No. 1 into fibrotic-rich liver tissue
